These molecules were tested against PI3Kalpha (Homo sapiens (Human), UniProt P42336). Conditions: read-out: IC50 PI3K.
Chain of PI3Kalpha (P42336 whole entry, looked up): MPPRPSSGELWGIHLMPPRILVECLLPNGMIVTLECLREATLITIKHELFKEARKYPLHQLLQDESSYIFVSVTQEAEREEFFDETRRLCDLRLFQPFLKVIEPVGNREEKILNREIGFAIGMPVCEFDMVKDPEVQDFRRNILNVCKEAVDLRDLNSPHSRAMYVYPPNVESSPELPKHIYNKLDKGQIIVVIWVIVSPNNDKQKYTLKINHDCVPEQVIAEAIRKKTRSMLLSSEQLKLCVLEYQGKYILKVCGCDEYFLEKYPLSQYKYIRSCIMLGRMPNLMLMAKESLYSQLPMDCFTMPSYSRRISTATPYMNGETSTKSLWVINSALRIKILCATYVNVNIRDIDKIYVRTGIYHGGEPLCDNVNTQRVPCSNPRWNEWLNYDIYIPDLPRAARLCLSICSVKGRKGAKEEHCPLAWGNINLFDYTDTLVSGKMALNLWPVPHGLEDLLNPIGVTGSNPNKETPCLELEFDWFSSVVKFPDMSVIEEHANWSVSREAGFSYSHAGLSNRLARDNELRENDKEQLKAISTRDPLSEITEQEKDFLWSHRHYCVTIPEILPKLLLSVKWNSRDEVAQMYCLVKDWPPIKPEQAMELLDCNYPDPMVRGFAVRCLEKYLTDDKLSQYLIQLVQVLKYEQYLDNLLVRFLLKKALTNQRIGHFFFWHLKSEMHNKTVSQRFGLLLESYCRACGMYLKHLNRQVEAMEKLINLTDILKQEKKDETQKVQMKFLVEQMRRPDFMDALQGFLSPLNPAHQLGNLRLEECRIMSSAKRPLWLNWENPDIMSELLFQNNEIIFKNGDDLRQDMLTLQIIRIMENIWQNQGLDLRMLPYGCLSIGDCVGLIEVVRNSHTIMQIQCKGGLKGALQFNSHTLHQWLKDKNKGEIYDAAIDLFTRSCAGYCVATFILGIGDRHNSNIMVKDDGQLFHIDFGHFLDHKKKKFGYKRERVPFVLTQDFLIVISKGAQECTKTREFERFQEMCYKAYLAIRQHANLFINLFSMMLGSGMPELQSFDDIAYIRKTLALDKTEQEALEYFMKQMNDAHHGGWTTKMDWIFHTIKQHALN
Description: Plot the concentration of each compound versus the emission ratio. […] Determination of IC50 values can be obtained by curve fitting (sigmoidal dose response, variable slope) using Prism software from GraphPad).
Method Type: Filter-Binding-Assay
Compounds are serially diluted in assay buffer+6% DMSO and 10 μl of each dilution is added per well of a 96-well plate (compounds are tested in duplicates) and mixed with 30 μl of the lipid vesicles containing PDGFR-Peptide (0.5 μM final) and PI3K alpha (25 ng/well final). The mixture is then incubated for 20 minutes at room temperature. Subsequently, 20 μl of assay buffer containing 3 μM cold ATP and 0.5 μCi/20 μl 33P-ATP are added. The plates are then incubated at room temperature for 120 minutes (shaking with 300 rpm). The reaction mix is transferred onto filter plates using “filtermate harvester” from Packard: filter plates are rinsed with PBS, then the reaction mix is filtered onto the filter plate, washed 5 times with PBS and are allowed to dry for 30-60 minutes at 50° C.
As positive control serve wells containing vehicle controls (1% DMSO in assay buffer), showing non-inhibited kinase activity (high values). Wells containing assay buffer instead of enzyme can serve as control for background activity (low values).
Calculate IC50 values using the Smiley program (based on GrapPad Prism)
In the case of CCc1ncnc(-c2ccc(C(=O)N3CCC4(CC3)OCCCO4)c(C)c2)c1C#Cc1ccc(N)nc1 [Example E-117], the IC50 is reported as 0.0735 µM. CCc1ncnc(-c2ccc(C(=O)N3CCC(C4CCN(C)CC4)CC3)c(C)c2)c1C#Cc1ccc(N)nc1 [Example E-119] was tested, and the IC50 was 0.281 µM. With CCc1ncnc(-c2ccc(C(=O)NC3CCCN(C)C3)c(C)c2)c1C#Cc1ccc(N)nc1 (stereo not drawn) [Example E-120] the IC50 was 0.349 µM. With CCc1ncnc(-c2ccc(C(=O)N3CC[S+]([O-])CC3)c(C)c2)c1C#Cc1ccc(N)nc1 [Example E-121] the IC50 was 0.0639 µM. CCc1ncnc(-c2ccc(C(=O)N3CCNCC3)c(C)c2)c1C#Cc1ccc(N)nc1 [Example E-127] was tested, and the IC50 was 0.158 µM. CCc1ncnc(-c2ccc(C(=O)N(C)O)c(C)c2)c1C#Cc1ccc(N)nc1 [Example E-128] showed an IC50 of 0.0372 µM. CCc1ncnc(-c2ccc(C(=O)N3CCCN(C)CC3)c(C)c2)c1C#Cc1ccc(N)nc1 [Example E-129] showed an IC50 of 0.237 µM. CCc1ncnc(-c2ccc(C(=O)N3CCN(c4ccccn4)CC3)c(C)c2)c1C#Cc1ccc(N)nc1 [Example E-130] showed an IC50 of 0.0691 µM. CCc1ncnc(-c2ccc(C(=O)N3CCN(c4ccncc4)CC3)c(C)c2)c1C#Cc1ccc(N)nc1 [Example E-131] was tested, and the IC50 was 0.158 µM. With CCc1ncnc(-c2ccc(C(=O)N3CCC(O)CC3)c(C)c2)c1C#Cc1ccc(N)nc1 [Example E-132] the IC50 was 0.0456 µM. CCc1ncnc(-c2ccc(C(=O)N3CCCOCC3)c(C)c2)c1C#Cc1ccc(N)nc1 [Example E-133] gave an IC50 of 0.0779 µM. In the case of CCc1ncnc(-c2ccc(C(=O)NCC3(C)COC3)c(C)c2)c1C#Cc1ccc(N)nc1 [Example E-134], the IC50 is reported as 0.0449 µM. In the case of CCc1ncnc(-c2ccc(C(=O)N3CCN(c4ccccc4)CC3)c(C)c2)c1C#Cc1ccc(N)nc1 [Example E-135], the IC50 is reported as 0.149 µM. For CCc1ncnc(-c2ccc(C(=O)N3CCN4CCC[C@@H]4C3)c(Cl)c2)c1C#Cc1ccc(N)nc1 [Example E-139], the IC50 was 0.16 µM. CCc1ncnc(-c2ccc(C(=O)N3CCN4CCC[C@@H]4C3)c(F)c2)c1C#Cc1ccc(N)nc1 [Example E-140] showed an IC50 of 0.199 µM. CCc1ncnc(-c2ccc(C(=O)N3CCN4CCC[C@H]4C3)c(Cl)c2)c1C#Cc1ccc(N)nc1 [Example E-141] was tested, and the IC50 was 0.26 µM. Work on CCc1ncnc(-c2ccc(C(=O)N3CCN4CCC[C@H]4C3)c(F)c2)c1C#Cc1ccc(N)nc1 [Example E-142] yielded an IC50 of 0.107 µM. CCc1ncnc(-c2ccc(C(=O)N3CCN4CCCC[C@H]4C3)c(Cl)c2)c1C#Cc1ccc(N)nc1 [Example E-143] showed an IC50 of 0.127 µM. Molecule CCc1ncnc(-c2ccc(C(=O)N3CCN4CCCC[C@H]4C3)c(F)c2)c1C#Cc1ccc(N)nc1 [Example E-144] has an IC50 of 0.169 µM. Work on CCc1ncnc(-c2ccc(C(=O)N3CCN4CCCC[C@@H]4C3)c(F)c2)c1C#Cc1ccc(N)nc1 [Example E-145] yielded an IC50 of 0.358 µM. In the case of CCc1ncnc(-c2cc(F)c(C(=O)N3CCN(CCCS(C)(=O)=O)CC3)c(F)c2)c1C#Cc1ccc(N)nc1 [Example E-146], the IC50 is reported as 0.0458 µM. CCc1ncnc(-c2cc(F)c(C(=O)N3CCn4ccnc4C3)c(F)c2)c1C#Cc1ccc(N)nc1 [Example E-147] gave an IC50 of 0.0557 µM. CCc1ncnc(-c2cc(F)c(C(=O)N3CCn4cnnc4C3)c(F)c2)c1C#Cc1ccc(N)nc1 [Example E-148] gave an IC50 of 0.0706 µM. For CCc1ncnc(-c2cc(F)c(C(=O)N3CCn4c(C)cnc4C3)c(F)c2)c1C#Cc1ccc(N)nc1 [Example E-149], the IC50 was 0.0858 µM. In the case of CCc1ncnc(-c2cc(F)c(C(=O)N3CCC4(CC3)COC4)c(F)c2)c1C#Cc1ccc(N)nc1 [Example E-150], the IC50 is reported as 0.12 µM. CCc1ncnc(-c2cc(F)c(C(=O)N3CCn4cnnc4C3)c(Cl)c2)c1C#Cc1ccc(N)nc1 [Example E-156] was tested, and the IC50 was 0.0183 µM. CCc1ncnc(-c2cc(F)c(C(=O)N3CCn4c(C)cnc4C3)c(Cl)c2)c1C#Cc1ccc(N)nc1 [Example E-157] gave an IC50 of 0.0375 µM. CCc1ncnc(-c2cc(F)c(C(=O)N3CCC4(CC3)COC4)c(Cl)c2)c1C#Cc1ccc(N)nc1 [Example E-158] gave an IC50 of 0.122 µM. For CCc1ncnc(-c2cc(F)c(C(=O)N3CCN(CCNS(C)(=O)=O)CC3)c(Cl)c2)c1C#Cc1ccc(N)nc1 [Example E-159], the IC50 was 0.0258 µM. CCc1ncnc(-c2cc(F)c(C(=O)N3CCN(C4CCC4)CC3)c(Cl)c2)c1C#Cc1ccc(N)nc1 [Example E-160] gave an IC50 of 0.115 µM. CCc1ncnc(-c2cc(F)c(C(=O)N3CCC4(CC3)CNC4)c(F)c2)c1C#Cc1ccc(N)nc1 [Example E-161] showed an IC50 of 0.925 µM. Work on CCc1ncnc(-c2cc(F)c(C(=O)N3CCC4(CC3)CNC4)c(Cl)c2)c1C#Cc1ccc(N)nc1 [Example E-162] yielded an IC50 of 0.54 µM. In the case of CCc1ncnc(-c2ccc(C(=O)N3CCn4c(COC)nnc4C3)c(F)c2)c1C#Cc1ccc(N)nc1 [Example E-163], the IC50 is reported as 0.0508 µM. Molecule CCc1ncnc(-c2ccc(C(=O)N3CCC4(CC3)COC4)c(F)c2)c1C#Cc1ccc(N)nc1 [Example E-164] has an IC50 of 0.154 µM. With C#CCN1CCN(C(=O)c2ccc(-c3ncnc(CC)c3C#Cc3ccc(N)nc3)cc2F)CC1 [Example E-165] the IC50 was 0.178 µM. For CCc1ncnc(-c2ccc(C(=O)N3CCC(F)(F)CC3)c(F)c2)c1C#Cc1ccc(N)nc1 [Example E-166], the IC50 was 0.154 µM. CCc1ncnc(-c2ccc(C(=O)NCCN3CCNCC3)c(F)c2)c1C#Cc1ccc(N)nc1 [Example E-167] showed an IC50 of 0.157 µM. CCc1ncnc(-c2ccc(C(=O)NCC3CCNCC3)c(F)c2)c1C#Cc1ccc(N)nc1 [Example E-168] was tested, and the IC50 was 0.373 µM. CCc1ncnc(-c2ccc(C(=O)N(C)C3CCOCC3)c(F)c2)c1C#Cc1ccc(N)nc1 [Example E-169] gave an IC50 of 0.07 µM. With CCc1ncnc(-c2cc(F)c(C(=O)N3CCn4c(COC)nnc4C3)c(F)c2)c1C#Cc1ccc(N)nc1 [Example E-170] the IC50 was 0.0965 µM. Work on CCc1ncnc(-c2cc(F)c(C(=O)NCCN3CCNCC3)c(F)c2)c1C#Cc1ccc(N)nc1 [Example E-174] yielded an IC50 of 0.165 µM. CCc1ncnc(-c2cc(F)c(C(=O)NCC3CCNCC3)c(F)c2)c1C#Cc1ccc(N)nc1 [Example E-175] gave an IC50 of 0.163 µM. Molecule CCc1ncnc(-c2cc(F)c(C(=O)N(C)C3CCN(C)CC3)c(F)c2)c1C#Cc1ccc(N)nc1 [Example E-176] has an IC50 of 0.491 µM. In the case of CCc1ncnc(-c2ccc(C(=O)N3CCC(C(C)(C)O)CC3)c(F)c2)c1C#Cc1ccc(NC)nc1 [Example E-177], the IC50 is reported as 0.337 µM. For CCc1ncnc(-c2ccc(C(=O)N3CCC(N4CCOCC4)CC3)c(F)c2)c1C#Cc1ccc(NC)nc1 [Example E-178], the IC50 was 0.335 µM. In the case of CCc1ncnc(-c2ccc(C(=O)N3CCN(C4CCOCC4)CC3)c(F)c2)c1C#Cc1ccc(NC)nc1 [Example E-179], the IC50 is reported as 0.276 µM. For CCc1ncnc(-c2ccc(C(=O)N3CC[C@@H](N(C)C)C3)c(F)c2)c1C#Cc1ccc(NC)nc1 [Example E-180], the IC50 was 0.357 µM. For CCc1ncnc(-c2ccc(C(=O)N3CC[C@H](N(C)C)C3)c(F)c2)c1C#Cc1ccc(NC)nc1 [Example E-181], the IC50 was 0.275 µM. CCc1ncnc(-c2ccc(C(=O)N3CCN(C)CC3)c(F)c2)c1C#Cc1ccc(NC)nc1 [Example E-182] gave an IC50 of 0.247 µM. For CCc1ncnc(-c2ccc(C(=O)N3CCC(N4CCN(C)CC4)CC3)c(F)c2)c1C#Cc1ccc(NC)nc1 [Example E-183], the IC50 was 0.308 µM. CCc1ncnc(-c2ccc(C(=O)N3CCC(C(C)(C)O)CC3)c(Cl)c2)c1C#Cc1ccc(NC)nc1 [Example E-184] was tested, and the IC50 was 0.399 µM. Work on CCc1ncnc(-c2ccc(C(=O)N3CCC(N4CCOCC4)CC3)c(Cl)c2)c1C#Cc1ccc(NC)nc1 [Example E-185] yielded an IC50 of 0.202 µM. For CCc1ncnc(-c2ccc(C(=O)N3CCN(C4CCOCC4)CC3)c(Cl)c2)c1C#Cc1ccc(NC)nc1 [Example E-186], the IC50 was 0.325 µM. With CCc1ncnc(-c2ccc(C(=O)N3CCN(CC(F)F)CC3)c(Cl)c2)c1C#Cc1ccc(NC)nc1 [Example E-187] the IC50 was 0.162 µM. In the case of CCc1ncnc(-c2ccc(C(=O)N3CC[C@@H](N(C)C)C3)c(Cl)c2)c1C#Cc1ccc(NC)nc1 [Example E-188], the IC50 is reported as 0.356 µM. CCc1ncnc(-c2ccc(C(=O)N3CCN(CC)CC3)c(Cl)c2)c1C#Cc1ccc(NC)nc1 [Example E-189] gave an IC50 of 0.186 µM. CCc1ncnc(-c2ccc(C(=O)N3CC[C@H](N(C)C)C3)c(Cl)c2)c1C#Cc1ccc(NC)nc1 [Example E-190] was tested, and the IC50 was 0.175 µM. With CCc1ncnc(-c2ccc(C(=O)N3CCN(C)CC3)c(Cl)c2)c1C#Cc1ccc(NC)nc1 [Example E-191] the IC50 was 0.142 µM. CCc1ncnc(-c2ccc(C(=O)N3CCC(N4CCN(C)CC4)CC3)c(Cl)c2)c1C#Cc1ccc(NC)nc1 [Example E-192] gave an IC50 of 0.334 µM. CCc1ncnc(-c2cc(Cl)c(C(=O)N3CCN4CCC[C@H]4C3)c(Cl)c2)c1C#Cc1ccc(N)nc1 [Example E-194] showed an IC50 of 0.129 µM. Molecule CCc1ncnc(-c2cc(Cl)c(C(=O)N3CCN(C)C(=O)C3)c(Cl)c2)c1C#Cc1ccc(N)nc1 [Example E-195] has an IC50 of 0.0203 µM. CCc1ncnc(-c2cc(Cl)c(C(=O)N3CC[C@@H](N(C)C)C3)c(Cl)c2)c1C#Cc1ccc(N)nc1 [Example E-196] was tested, and the IC50 was 0.235 µM. With CCc1ncnc(-c2cc(Cl)c(C(=O)N3CCN(C)CC3)c(Cl)c2)c1C#Cc1ccc(N)nc1 [Example E-197] the IC50 was 0.123 µM. In the case of CCc1ncnc(-c2cc(Cl)c(C(=O)N3CCN(CC)CC3)c(Cl)c2)c1C#Cc1ccc(N)nc1 [Example E-198], the IC50 is reported as 0.0909 µM. With CCc1ncnc(-c2cc(Cl)c(C(=O)N3CCN(CC(C)(C)O)CC3)c(Cl)c2)c1C#Cc1ccc(N)nc1 [Example E-199] the IC50 was 0.0746 µM. In the case of CCc1ncnc(-c2cc(Cl)c(C(=O)N3CCC(C(C)O)CC3)c(Cl)c2)c1C#Cc1ccc(N)nc1 (stereo not drawn) [Example E-200], the IC50 is reported as 0.0588 µM. Molecule CCc1ncnc(-c2cc(Cl)c(C(=O)N3CCC(C(C)(C)O)CC3)c(Cl)c2)c1C#Cc1ccc(N)nc1 [Example E-201] has an IC50 of 0.0981 µM. Work on CCc1ncnc(-c2cc(Cl)c(C(=O)N3CCN(CC(F)F)CC3)c(Cl)c2)c1C#Cc1ccc(N)nc1 [Example E-202] yielded an IC50 of 0.0858 µM. CCc1ncnc(-c2cc(Cl)c(C(=O)N3CCC(C)(O)CC3)c(Cl)c2)c1C#Cc1ccc(N)nc1 [Example E-203] was tested, and the IC50 was 0.0952 µM. For CCc1ncnc(-c2cc(Cl)c(C(=O)N3CCC(CO)CC3)c(Cl)c2)c1C#Cc1ccc(N)nc1 [Example E-205], the IC50 was 0.0489 µM. CCc1ncnc(-c2cc(Cl)c(C(=O)N3CCN(CCC#N)CC3)c(Cl)c2)c1C#Cc1ccc(N)nc1 [Example E-206] gave an IC50 of 0.0718 µM. In the case of CCc1ncnc(-c2cc(F)c(C(=O)N3CCN4CCC[C@H]4C3)c(F)c2)c1C#Cc1ccc(NC)nc1 [Example E-207], the IC50 is reported as 0.581 µM.

From US8633183B2 (priority 2010, dated 2014)
